Results on 94 compounds are retold here after PubChem BioAssay AID2423 (Broad Institute, 2010).

Results filed as inconclusive are left out. Activity calls are given as the source filed them. How the calls were made is not given here.

Broadly, the EC50 is the concentration at which the effect is half-maximal.

The experiment has as its system C. albicans CaCi-8 + fluconazole, Alamar Blue growth, 48 h. Description: resistant C. albicans growth inhibition with fluconazole, dose response, CaCi-8 strain, Alamar Blue fluorescence (AID 2423). In general terms: Resazurin is reduced to fluorescent resorufin, in cell work by metabolically active cells.

Take `Cc1cc(O)ccc1NC(=S)NC(=O)c1cncc(Br)c1`: the EC50 was 727 nM.
Take `Nc1ccc(C(=O)N/N=C\c2ccc(OC(=O)c3ccccc3Cl)cc2)cc1`: the EC50 was 431 nM.
Next, `O=C(OCn1ncc(Cl)c(Cl)c1=O)c1ccc(F)cc1`: > 16000 nM (inactive); `COC(=O)c1c[nH]n2c(=O)c(Cc3ccc(F)cc3Cl)c(C)nc12`: 755 nM.
For `CCCc1ccc(/C=C2\C(=O)c3ccccc3C(O)=C2C(=O)OCC)cc1`, the EC50 was > 15000 nM (inactive).
As to `CN1CCN(Cc2cc(COCc3ccccc3)c3cccnc3c2O)CC1`, the half-maximal effective concentration (EC50) is 1460 nM.
Under `CSc1ccc(C2c3[nH]c4ccccc4c3CCN2C(=O)c2ccnn2C)cc1` (centres undefined) stands 2350 nM; under `CCc1ccc(OCC(=O)NNC(=S)NC(=O)C2CCCCC2)c(Br)c1`, 1790 nM.
Next, `COc1cccc(C2C(C(=O)c3cc4ccccc4o3)=C(O)C(=O)N2c2cc(C)on2)c1OC` (centres undefined): 154 nM; `Cc1cc(C)cc(OCC(=O)NNC(=S)NC(=O)C2CC2)c1`: 646 nM.
As for `CCCCOc1cccc(C(=O)NNC(=S)NC2CCCCC2)c1`, the EC50 is 8740 nM.
Next, `O=C(N/N=C/c1ccc(Cl)cc1Cl)Nc1ccccc1`: > 16000 nM (inactive); `Cc1ccc(Nc2nc(CSc3nnc(-c4ccncc4)n3-c3ccccc3C)cs2)cc1`: > 16000 nM (inactive).
As for `C(=C\c1ccccc1)/C=N/Nc1nc(N2CCCCC2)nc(N2CCCCC2)n1`, the EC50 is > 15000 nM (inactive).
`Cc1ccc(-n2c(C)cc(/C([O-])=C(/C(=S)Nc3ccc(F)c(Cl)c3)[n+]3ccccc3)c2C)cc1`: the EC50 was > 16000 nM (inactive).
`O=C(O)c1ccccc1-c1ccccc1C(=O)Nc1cccc(-c2nc3ccccc3o2)c1`: the EC50 was 2240 nM.
Next, `Nc1c(S(=O)(=O)c2ccccc2)c2nc3ccccc3nc2n1CCN1CCOCC1`: 2970 nM; `Cc1ccccc1-n1c(=O)c(C#N)cc2c(=O)n3ccccc3nc21`: > 16000 nM (inactive).
Under `O=C(CC(=O)c1cccc([N+](=O)[O-])c1)Nc1ccccc1Cl` stands 954 nM; under `O=C(c1ccc(Cn2c(=S)[nH]c3ccccc3c2=O)cc1)N1CCN(c2ccccn2)CC1`, 695 nM.
`CC(C)(C)C(=O)NC(=S)NNC(=O)c1sc2ccccc2c1Cl`: the EC50 was 360 nM.
Next, `CN(C)CCCNC(=O)c1ccc(-c2nc(-c3ccc(Cl)cc3)cs2)cc1`: 2610 nM; `Cc1c(Cl)c([N+](=O)[O-])nn1Cc1ccc(C(=O)N/N=C\c2cc(Cl)ccc2O)o1`: 1030 nM; `COc1cc(-c2nnc(SCc3cc(=O)oc4cc(O)c(O)cc34)o2)cc(OC)c1OC`: 4390 nM.
Under `COc1cc2ccccc2cc1C(=O)NNC(=O)c1ccccc1O` stands 8440 nM.
Next, `O=C(Nc1ccccc1N1CCOCC1)c1ccc(S(=O)(=O)NCc2ccco2)cc1`: > 15000 nM (inactive); `C=CCNC(=S)N/N=C/c1ccc(-c2ccc(OC)cc2)o1`: 4000 nM.
For `Cc1cc(C(=O)N/N=C/c2cc(Cl)cc([N+](=O)[O-])c2O)c2ccccc2n1`, the EC50 was 2790 nM.
Turning to `CC(=O)N1CCN(c2ccc(NC(=O)c3ccc(C(C)(C)C)cc3)cc2)CC1`, the EC50 was 11900 nM.
Under `N#Cc1cc(C#N)c(N2CCN(c3cccc(Cl)n3)CC2)nc1N` stands 1580 nM; under `CC(=O)c1cnc2cc(-c3cccc(Br)c3)nn2c1C`, > 15000 nM (inactive); under `CCOC(=O)CNC(=O)c1sc2ncnc(N3CCc4ccccc4C3)c2c1C`, 4560 nM.
Under `COc1ccc(-[n+]2c(-c3ccccc3)cc(-c3ccc(C)cc3)cc2-c2ccccc2)cc1` stands > 15000 nM (inactive); under `CCOC(=O)Cc1csc(NC(=O)CSc2nnc(-c3ccc(NS(=O)(=O)CC)cc3)o2)n1`, 150 nM; under `CCCCOc1ccc(C(=O)NNC(=S)NC(=O)CC)cc1`, 858 nM.
Take `O=C(c1cc(COc2cccc(C(F)(F)F)c2)on1)N1CCC(c2ccncc2)CC1`: the EC50 is 2540 nM.
Under `CS/C(=C\[N+](=O)[O-])Nc1ccc(Cl)cc1` stands 4020 nM.
For the compound `COc1ccc(C(=O)NN/C(C)=C/C(=O)C(F)(F)C(F)(F)C(F)(F)F)cc1`, the EC50 was 5050 nM.
In the case of `N#Cc1c(-c2ccc(Cl)cc2)cc(-c2ccccc2)nc1SCC(=O)O`, the EC50 is 1200 nM.
Under `O=C(Nc1sc2c(c1C(=O)c1ccc(Cl)cc1)CCCC2)c1cccnc1` stands 615 nM; under `CC(C)(C)C(=O)NC(=S)NNC(=O)c1ccc(-c2ccccc2)cc1`, less than 120 nM.
With `Cc1ccc2nc(Cl)c3nnnn3c2c1`, the EC50 is 230 nM.
For the compound `CC1(C)CC(=O)C2=C(C1)c1c(ccc3ccccc13)NC2c1cc([N+](=O)[O-])cc([N+](=O)[O-])c1O` (centres undefined), the EC50 was > 15000 nM (inactive).
Next, `Cc1cc(Br)ccc1OCC(=O)NNC(=O)C(=O)Nc1ccccc1`: 718 nM.
Next, `COc1ccccc1NC1=C(N2CCCCC2)C(=O)c2ccccc2C1=O`: 245 nM.
Next, `COc1ccc(C(=O)On2c(-c3ccc(Br)cc3)nc3ccccc3c2=O)cc1`: 1110 nM; `Cc1c(Nc2scc(-c3ccccc3)[n+]2-c2ccccc2)c(=O)n(-c2ccccc2)n1C`: 225 nM; `O=[N+]([O-])c1cc(Cl)c2cccnc2c1O`: 291 nM.
On to `O=[N+]([O-])c1ccc(O)c(/C=N/NC(=S)Nc2ccc(Cl)cc2Cl)c1`, for which the EC50 is 1870 nM.
Next, `Cc1[nH]c2ccccc2c1/C=C/c1cc[n+](C)cc1`: 7180 nM.
As to `O=C(CCC(=O)Nc1ccccc1Cl)NNS(=O)(=O)c1ccc(Cl)cc1`, the EC50 was > 16000 nM (inactive).
Under `Cc1ccc(-n2ncc(Br)c(Br)c2=O)cc1` stands 855 nM; under `COC(=O)[C@@H]1CCCN1Cc1nc(Cc2ccccc2F)no1`, > 16000 nM (inactive).
Regarding `COCc1nnc(NC(=O)c2ccc(S(=O)(=O)N3CCCCCC3)cc2)o1`, the EC50 is 12900 nM.
On to `Cc1ccc(S(=O)(=O)CC2CSc3nc4ccccc4n32)cc1` (centres undefined), for which the EC50 was 2520 nM.
On to `CCOC(=O)c1ccc(NC(=O)c2ccc(CO)c(C(=O)NC3CCN(C(=O)OCC)CC3)c2)cc1`, for which the EC50 was > 16000 nM (inactive).
Turning to `O=C(c1ccccc1)c1ccc2nc(-c3ccc(NC(=O)c4ccccc4Br)cc3)[nH]c2c1`, the EC50 is 377 nM.
For `Cc1ccc(Nc2nc(N)c([N+](=O)[O-])c(N3CCC(C)CC3)n2)cc1C`, the EC50 was 3640 nM.
Regarding `CC1=CC2=C(OC1N(C)C)c1cccc3cccc(c13)C2=O` (centres undefined), the EC50 is 9240 nM.
Under `CCCC(=O)NC(=S)NNC(=O)c1ccc([N+](=O)[O-])cc1` stands 4900 nM.
In the case of `CCOc1cc(/C=C(\C#N)C(=O)NCC2CCCO2)ccc1OCC(N)=O` (centres undefined), the EC50 was > 16000 nM (inactive).
Next, `Cc1onc(-c2c(F)cccc2Cl)c1C(=O)NNC(=O)C1CCN(Cc2ccccc2)CC1`: > 15000 nM (inactive); `O=C(/C(=N/N=C/c1ccc(O)c(O)c1O)c1ccccc1)c1ccccc1`: 2300 nM.
With `Cc1ccc(C(=O)c2coc3cc([N+](=O)[O-])c(O)c([N+](=O)[O-])c23)cc1`, the EC50 is 1230 nM.
Next, `COc1ccc(/C=N\NC(=O)c2cc(O)c(O)c(O)c2)cc1CN1CCN(c2ccc(F)cc2)CC1`: 1580 nM.
As to `O=C(Nc1nc(=O)c2ccccc2s1)c1ccccc1`, the EC50 was > 15000 nM (inactive).
Next, `CCCOC(=O)/C(=C\c1ccc([N+](=O)[O-])o1)NC(=O)c1ccccc1`: > 16000 nM (inactive).
Under `O=C(NNC(=S)NC(=O)c1ccccc1[N+](=O)[O-])c1ccc(Cl)cc1Cl` stands 1870 nM; under `C=CCc1cccc(/C=N/NC(=O)CNc2ccccc2OC)c1O`, 12500 nM; under `CCOc1ccccc1C(=O)Nc1ccc2nc3n(c(=O)c2c1)CCCCC3`, 2510 nM.
With `COc1cccc(C(C(=O)NC2CCCC2)N(C(=O)c2ccco2)c2ccc(-n3cnnn3)c(C)c2)c1OC` (centres undefined), the EC50 was > 15000 nM (inactive).
`CNC(=S)N1N=C(c2ccccc2)CC1c1ccccc1Cl` (centres undefined): the EC50 is > 16000 nM (inactive).
Take `CCCOc1cccc(C(=O)N/N=C/c2coc3ccccc3c2=O)c1`: the EC50 was > 15000 nM (inactive).
Under `CCCOc1ccc(C(=O)NNC(=S)NC(C)=O)cc1` stands 1670 nM; under `CNCc1ccccc1Sc1ccc(O)c(O)c1`, 6840 nM.
Under `CCOc1ccc(-c2ccc(NS(=O)(=O)c3ccc([N+](=O)[O-])cc3)cc2)nn1` stands 2650 nM; under `C/C(=N\NC(=O)C1CCCC1)c1ccc(Cl)c(Cl)c1`, > 15000 nM (inactive).
Under `CCC(=O)NC(c1cccs1)c1ccc2cccnc2c1O` (centres undefined) stands 1510 nM.
With `O=C(CCS(=O)(=O)c1ccccc1)Nc1nnc(C(F)(F)F)s1`, the EC50 is > 16000 nM (inactive).
Take `CC[n+]1c(C=C2C=C(C)OC(C)=C2)sc2ccccc21`: the EC50 was 2080 nM.
Under `COc1cc2c(cc1NC(=O)c1ccco1)CCCC2` stands 1060 nM.
Take `C/C(=N\NC(=O)c1cc(-c2cccnc2)nc2ccccc12)c1ccc(O)cc1O`: the EC50 was 1450 nM.
Under `CN1CCN(C(c2ccc(Br)cc2)c2cc(Cl)c3cccnc3c2O)CC1` (centres undefined) stands 624 nM; under `Cc1c(OCC(=O)NCC(O)c2ccccc2)ccc2c(-c3ccccc3)cc(=O)oc12` (centres undefined), 1260 nM; under `O=C1C2CCN(CC2)C1Cc1ccc(OCCOc2ccccc2)cc1` (centres undefined), 1680 nM.
Next, `O=C(CCl)N1c2ccccc2CCc2ccccc21`: 1010 nM; `CCC(=O)NC(c1cccs1)c1cc([N+](=O)[O-])c2cccnc2c1O` (centres undefined): 633 nM.
Regarding `Nc1[nH]n2c(=O)cc(-c3ccccc3)nc2c1N=Nc1ccc(S(N)(=O)=O)cc1`, the EC50 is 3060 nM.
With `CCN1CCN(C(c2cccnc2)c2cc(Cl)c3cccnc3c2O)CC1` (centres undefined), the EC50 was 978 nM.
Next, `Cc1cccc(NC(=S)N/N=C(\c2ccccc2)C(C)C)c1`: 3120 nM.
Under `Cc1ccnc(NC(c2cccnc2)c2ccc3cccnc3c2O)c1` (centres undefined) stands 13100 nM; under `Cc1ccc(Nc2nc(Cl)nc(NC(C)(C)C)n2)cc1`, 2620 nM.
In the case of `Cc1nc2ccccc2cc1OCc1ccc(F)cc1`, the concentration for a half-maximal effect (EC50) was 909 nM.
In the case of `O=C(NNC(=S)Nc1cccc(C(F)(F)F)c1)c1ccc(Cl)cc1Cl`, the EC50 was 1970 nM.
